Values after ≈ are worked out from the molar mass of the structure shown.

What all share (assay type): functional, organism-based
Assay [1] deals with Plasmodium falciparum. The assay is described as follows: In vitro antimalarial activity against Plasmodium falciparum W2.
For assay [2], the system named is Plasmodium falciparum. The assay is described as follows: In vitro antimalarial activity against Plasmodium falciparum D6.
Assay [3] has as its system Plasmodium falciparum. As to the kind of experiment: In vitro antimalarial activity against Plasmodium falciparum D6; Not significant.
Assay [4] deals with Plasmodium falciparum. The assay is described as follows: In vitro antimalarial activity against Plasmodium falciparum W2; Not significant.

Usually IC50 stands for the concentration that gives 50% inhibition. As to `CCn1cc(C(=O)NCCCCCN(O)C(=O)CCC(=O)NCCCCCN(O)C(=O)CCC(=O)NCCCCCN(O)C(C)=O)c(=O)c2ccc(C)nc21`, the IC50 in the assay with Plasmodium falciparum [1] and in the assay with Plasmodium falciparum [2] was roughly 0.6 mg/L (≈ 0.774 µM) throughout.
In the case of `CC(=O)N(O)CCCCCNC(=O)CCC(=O)N(O)CCCCCNC(=O)CCC(=O)N(O)CCCCCNC(=O)c1ccc2c(c1)C(=O)c1ccccc1C2=O`, the half-inhibitory concentration (IC50) result in the assay with Plasmodium falciparum [3] and in the assay with Plasmodium falciparum [4] was “Not Active” in each case.

For the origin of these results see ChEMBL document CHEMBL1150454, “Synthesis, bioactivity, and DNA-cleaving ability of desferrioxamine B-nalidixic acid and anthraquinone carboxylic acid conjugates” (Bioorg Med Chem Lett, 1995).
